Laboratory results as given in the supplement of paper PMC5908809.

How the values were obtained:
[1] = tested on: normal NK cells expanded with K562-aAPC; test: percent inhibition of viability; higher = more inhibition; settings: 72 h, IL-2 2.5 ng/mL
Description: (§1)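 Drug sensitivity and resistance testing on K562-aAPC-expanded normal NK cells: 5 concentrations (10-fold steps over a 10,000-fold range), 72 h at 37 °C, viability by CellTiter-Glo normalised to DMSO and benzethonium chloride controls; DSS from the fitted curve.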

DERL-7 (IL-2 2.5 ng/mL) [2] = test: as above; settings: 72 h
IMC-1 (IL-2 20 ng/mL) [3] = test: as above; settings: 72 h
KAI3 (IL-2 2.5 ng/mL) [4] = test: as above; settings: 72 h
KHYG-1 (IL-2 2.5 ng/mL) [5] = test: as above; settings: 72 h
NK-92 (IL-2 2.5 ng/mL) [6] = test: as above; settings: 72 h
NK-YS (IL-2 2.5 ng/mL) [7] = test: as above; settings: 72 h
NKL (IL-2 2.5 ng/mL) [8] = test: as above; settings: 72 h
SNK-6 (IL-2 2.5 ng/mL) [9] = test: as above; settings: 72 h
YT (IL-2 2.5 ng/mL) [10] = test: as above; settings: 72 h
[11] = tested on: normal primary NK cells, pool 1 (3 donors) (IL-2 2.5 ng/mL); test: as above; settings: 72 h
[12] = tested on: normal primary NK cells, pool 1 (3 donors), resting (IL-2 0 ng/mL); test: as above; settings: 72 h
[13] = tested on: normal primary NK cells, pool 2 (3 donors) (IL-2 2.5 ng/mL); test: as above; settings: 72 h
[14] = tested on: normal primary NK cells, pool 3 (3 donors) (IL-2 2.5 ng/mL); test: as above; settings: 72 h
[15] = tested on: normal NK cells expanded with K562-aAPC; test: drug sensitivity score (DSS) (DSS units); higher = more sensitive; extreme values may be limits of the assay; settings: 72 h; IL-2 2.5 ng/mL
Description: as §1

DERL-7 (IL-2 2.5 ng/mL) [16] = test: as above; settings: 72 h
IMC-1 (IL-2 20 ng/mL) [17] = test: as above; settings: 72 h
KAI3 (IL-2 2.5 ng/mL) [18] = test: as above; settings: 72 h
KHYG-1 (IL-2 2.5 ng/mL) [19] = test: as above; settings: 72 h
NK-92 (IL-2 2.5 ng/mL) [20] = test: as above; settings: 72 h
NK-YS (IL-2 2.5 ng/mL) [21] = test: as above; settings: 72 h
NKL (IL-2 2.5 ng/mL) [22] = test: as above; settings: 72 h
SNK-6 (IL-2 2.5 ng/mL) [23] = test: as above; settings: 72 h
YT (IL-2 2.5 ng/mL) [24] = test: as above; settings: 72 h
[25] = tested on: normal primary NK cells, pool 1 (3 donors) (IL-2 2.5 ng/mL); test: as above; settings: 72 h
[26] = tested on: normal primary NK cells, pool 1 (3 donors), resting (IL-2 0 ng/mL); test: as above; settings: 72 h
[27] = tested on: normal primary NK cells, pool 2 (3 donors) (IL-2 2.5 ng/mL); test: as above; settings: 72 h
[28] = tested on: normal primary NK cells, pool 3 (3 donors) (IL-2 2.5 ng/mL); test: as above; settings: 72 h

CS(=O)(=O)c1ccc(-c2cnc(N)c(C(=O)Nc3ccccc3)n2)cc1 [VE-821] (max concentration tested 10000 nM)
percent inhibition of viability [%]
Settings | 1 nM | 10 nM | 100 nM | 1000 nM | 10000 nM
DERL-7 (IL-2 2.5 ng/mL) [2] | 4.33 | 7.29 | 1.29 | 12.9 | 50.9
IMC-1 (IL-2 20 ng/mL) [3] | -4.03 | 0.79 | -1.04 | 4.32 | 67.9
KAI3 (IL-2 2.5 ng/mL) [4] | -6.99 | -6.14 | 7.79 | 43.5 | 52
KHYG-1 (IL-2 2.5 ng/mL) [5] | -3.09 | -0.84 | 3.42 | 23.8 | 95.3
NK-92 (IL-2 2.5 ng/mL) [6] | -13.2 | -3.86 | 2.78 | 36 | 48
NK-YS (IL-2 2.5 ng/mL) [7] | -5.61 | -3.96 | 4.64 | 25.1 | 40.2
NKL (IL-2 2.5 ng/mL) [8] | -16.3 | -14.8 | -15.7 | -0.56 | 24.9
SNK-6 (IL-2 2.5 ng/mL) [9] | 3.87 | -9.33 | -1.01 | 33.3 | 52.1
YT (IL-2 2.5 ng/mL) [10] | -4.34 | -6.49 | -4.51 | 4.75 | 9.28
[1] | -5.95 | -7.38 | -2.06 | 18.1 | 32.8
[11] | -1.78 | 22.5 | 3.18 | 5.45 | 6.99
[12] | 9.92 | 20.7 | 22.8 | 23 | 21.5
[13] | -7.66 | 8.41 | 7.62 | 7.68 | 15.6
[14] | -3.66 | 1.35 | 5.12 | 0.23 | 15.6

Settings | drug sensitivity score
DERL-7 (IL-2 2.5 ng/mL) [16] | 4.71
IMC-1 (IL-2 20 ng/mL) [17] | 4.37
KAI3 (IL-2 2.5 ng/mL) [18] | 8.88
KHYG-1 (IL-2 2.5 ng/mL) [19] | 8.93
NK-92 (IL-2 2.5 ng/mL) [20] | 7.01
NK-YS (IL-2 2.5 ng/mL) [21] | 4.96
NKL (IL-2 2.5 ng/mL) [22] | 0.89
SNK-6 (IL-2 2.5 ng/mL) [23] | 6.77
YT (IL-2 2.5 ng/mL) [24] | 0
[15] | 3.68
[25] | 0
[26] | 0
[27] | 0.62
[28] | 0.29
